# Molecular target: T1, APOL1 G1 (Homo sapiens, UniProt O14791, I384M/S342G)
# T1 sequence (O14791 28-398 S342G/I384M): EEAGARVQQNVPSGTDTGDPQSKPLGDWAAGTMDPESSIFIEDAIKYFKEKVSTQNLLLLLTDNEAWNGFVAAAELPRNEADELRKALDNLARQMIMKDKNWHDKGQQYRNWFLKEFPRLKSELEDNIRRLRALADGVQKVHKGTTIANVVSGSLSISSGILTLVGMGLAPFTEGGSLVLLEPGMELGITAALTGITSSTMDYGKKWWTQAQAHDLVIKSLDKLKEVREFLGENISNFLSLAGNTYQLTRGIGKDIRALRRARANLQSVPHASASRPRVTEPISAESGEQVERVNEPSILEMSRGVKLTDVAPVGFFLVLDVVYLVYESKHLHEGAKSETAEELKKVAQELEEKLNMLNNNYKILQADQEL
# Assay: MultiTox-Fluor Multiplex Cytotoxicity Assay in tet-inducible APOL1 G1 T-REx-HEK293 cells (clone G1 DC3.25)
# Assay type: cell-based
# Set-up: expressed in transfected cells; host or cells: T-REx HEK293, pAAVS1-Puro-APOL1 G1, clone G1 DC3.25
# Conditions: Multi-Tox Assay; IP50 = IC50 for cell proliferation; APOL1 variant cell line not given
# Protocol: The MultiTox-Fluor Multiplex Cytotoxicity Assay is a single-reagent-addition, homogeneous, fluorescence assay that measures the number of live and dead cells simultaneously in culture wells. The assay measures cell viability and cytotoxicity by detecting two distinct protease activities. The live-cell protease activity is restricted to intact viable cells and is measured using a fluorogenic, cell-permeant peptide glycyl-phenylalanylamino fluorocoumarin (GF-AFC) substrate. The substrate enters intact cells, where it is cleaved to generate a fluorescent signal proportional to the number of living cells. […] A second, cell-impermeant, fluorogenic peptide substrate (bis-AAF-R110 Substrate) is used to measure dead-cell protease that has been released from cells that have lost membrane integrity. A ratio of dead to live cells is used to normalize data.
# Briefly, the tet-inducible transgenic APOL1 T-REx-HEK293 cell lines were incubated with 50 ng/mL tet to induce APOL1 in the presence of 3-(2-(4-fluorophenyl)-1H-indol-3-yl)-N-((3S,4R)-4-hydroxy-2-oxopyrrolidin-3-yl)propenamide at […], 0.0045, 0.0015, 0.0005 μM in duplicate for 24 hours in a humidified 37° C. incubator. The MultiTox reagent was added to each well and placed back in the incubator for an additional 30 minutes. The plate was read on the EnVision plate reader. A ratio of dead to live cells was used to normalize, and data was imported, analyzed and fit using Genedata Screener (Basel, Switzerland) software. Data was normalized using percent of control, no tet (100% viability), and 50 ng/mL tet treated (0% viability), and fit using Smart Fit. The reagents, methods, and complete protocol for the MultiTox assay are described below.
# Human embryonic kidney (HEK293) cell lines containing a tet-inducible expression system (T-REx™; Invitrogen, Carlsbad, CA) and Adeno-associated virus site 1 pAAVS1-Puro-APOL1 G0 or pAAVS1-Puro-APOL1 G1 or pAAVS1-Puro-APOL1 G2 Clones G0 DC2.13, G1 DC3.25, and G2 DC4.44 were grown in a T-225 flask at ˜90% confluency in cell growth media (DMEM, 10% Tet-free FBS, 2 mM L-glutamine, 100 Units/mL penicillin-streptomycin, 5 μg/mL blasticidin S HCl, 1 μg/mL puromycin dihydrochloride). Cells were washed with DPBS and then trypsinized to dissociate from the flask. Media was used to quench the trypsin, cells were then pelleted at 200 g and resuspended in fresh cell assay media (DMEM, 2% Tet-free FBS, 2 mM L-glutamine, 100 Units/mL penicillin-streptomycin). Cells were counted and diluted to 1.17×10^6 cells/mL. 20 μL of cells (23,400/well) were dispensed to every well of a 384-well Poly-D-Lysine coated plate using the Multidrop dispenser. The plates were then incubated at room temperature for one hour.
# Tetracycline is needed to induce APOL1 expression. 1 mg/mL tet stock in water was diluted to 250 ng/mL (5×) in cell assay media. 60 μL of cell assay media (no tet control) was dispensed in columns 1 and 24, and 60 μL of 5× tet was dispensed in 384-PP-round bottom plate in columns 2 to 23 with the Multidrop dispenser.
# Assay ready plates from the Global Compound Archive were ordered using template 384_APOL1Cell_DR10n2_50 μM_v3. Compounds were dispensed at 200 nL in DMSO. The final top concentration was 10 μM with a 10 point 3-fold dilution in duplicate in the MultiTox assay.
# 20 μL were transferred from the 5× tet plate to the ARP and mixed, then 5 μL of 5× tet and the compounds were transferred to the cell plate and mixed using the Bravo. The cell plate was placed in the humidified 37° C. 5% CO2 incubator for 24 hours.
# The MultiTox-Fluor Multiplex Cytotoxicity Assay was performed in accordance with the manufacturer's protocol. After cells were incubated with tet and compound for 24 hours, 25 μL of 1× MultiTox reagent was added to each well using the Multidrop dispenser; the plates were placed on a plate shaker (600 rpm) for 2 minutes, then centrifuged briefly and placed back in the 37° C. incubator for 30 minutes. […]
smiles,measurement,value
"Cn1cc(C2CC3(CC(C(F)F)N2)OCCc2cc(C(F)(F)F)sc23)nn1 (centres unmarked) [Compound 389, 2′-(difluoromethyl)-6′-(1-methyltriazol-4-yl)-2-(trifluoromethyl)spiro[4,5-dihydrothieno[2,3-c]pyran-7,4′-piperidine]]",IC50,50 to 500 nM
"C[C@H]1C[C@@]2(C[C@@H](c3cn(C)nn3)N1)OC[C@@H](O)c1sc(C(F)(F)F)cc12 [Compound 390, (2′S,4S,6′S, 7R)-2′-methyl-6′-(1-methyltriazol-4-yl)-2-(trifluoromethyl)spiro[6,7-dihydrothieno[3,2-c]pyran-4,4′-piperidine]-7-ol]",IC50,< 50 nM

# Reference: patent publication US12421249B2, “Inhibitors of APOL1 and methods of using same” (Vertex Pharmaceuticals Incorporated, priority 2020, dated 2025)
